Experimental data taken from the supplement of paper PMC10307832.

Legend:
Assay in all cases: relative viability (nuclei count vs DMSO), 5 days (fraction); higher = more cells survive
Crizotinib + Tozasertib = compound: C[C@@H](Oc1cc(-c2cnn(C3CCNCC3)c2)cnc1N)c1c(Cl)ccc(F)c1Cl [Crizotinib] + Cc1cc(Nc2cc(N3CCN(C)CC3)nc(Sc3ccc(NC(=O)C4CC4)cc3)n2)n[nH]1 [Tozasertib] (partner 0.1 µM)
Outline: (§1)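 Lung cancer cell lines, seeded in 1536-well plates, were treated the following day by pin tool with a single drug or with five library-drug doses (not always all listed) in √10 steps on top of a fixed anchor-drug dose. Cells were fixed and nuclei stained in one step after 5 days, and nuclei were counted. Relative viability is the nuclei count for treated wells divided by that for vehicle wells, reported as medians of duplicate plates.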

Olaparib + Luminespib = compound: O=C(c1cc(Cc2n[nH]c(=O)c3ccccc23)ccc1F)N1CCN(C(=O)C2CC2)CC1 [Olaparib] + CCNC(=O)c1noc(-c2cc(C(C)C)c(O)cc2O)c1-c1ccc(CN2CCOCC2)cc1 [Luminespib] (partner 0.01 µM)
Outline: as §1

Olaparib + Vorinostat = compound: O=C(c1cc(Cc2n[nH]c(=O)c3ccccc23)ccc1F)N1CCN(C(=O)C2CC2)CC1 [Olaparib] + O=C(CCCCCCC(=O)Nc1ccccc1)NO [Vorinostat] (partner 1 µM)
Outline: as §1

Carfilzomib + Phenformin = compound: CC(C)C[C@H](NC(=O)[C@H](CCc1ccccc1)NC(=O)CN1CCOCC1)C(=O)N[C@@H](Cc1ccccc1)C(=O)N[C@@H](CC(C)C)C(=O)[C@@]1(C)CO1 [Carfilzomib] + N=C(N)NC(=N)NCCc1ccccc1 [Phenformin] (partner 250 µM)
Outline: as §1

Row | Cell Line | relative viability (Crizotinib + Tozasertib; first compound 0.01 µM) | relative viability (Crizotinib + Tozasertib; first compound 0.03162 µM) | relative viability (Crizotinib + Tozasertib; first compound 0.1 µM) | relative viability (Crizotinib + Tozasertib; first compound 0.3162 µM) | relative viability (Crizotinib + Tozasertib; first compound 1 µM) | relative viability (Olaparib + Luminespib; first compound 0.08 µM) | relative viability (Olaparib + Luminespib; first compound 0.253 µM) | relative viability (Olaparib + Luminespib; first compound 2.53 µM) | relative viability (Olaparib + Luminespib; first compound 8 µM) | relative viability (Olaparib + Vorinostat; first compound 0.08 µM) | relative viability (Olaparib + Vorinostat; first compound 0.253 µM) | relative viability (Olaparib + Vorinostat; first compound 2.53 µM) | relative viability (Olaparib + Vorinostat; first compound 8 µM) | relative viability (Carfilzomib + Phenformin; first compound 0.001 µM) | relative viability (Carfilzomib + Phenformin; first compound 0.003162 µM) | relative viability (Carfilzomib + Phenformin; first compound 0.01 µM) | relative viability (Carfilzomib + Phenformin; first compound 0.03162 µM) | relative viability (Carfilzomib + Phenformin; first compound 0.1 µM)
1 | 201T | 0.924 | 0.947 | 0.921 | 0.927 | 0.978 | 1.08 | 0.959 | 1.03 | 0.972 | 1.07 | 0.912 | 0.954 | 0.947 | 0.404 | 0.482 | 0.483 | 0.464 | 0.328
2 | A549 |  |  |  |  |  |  |  |  |  |  |  |  |  | 0.0885 | 0.231 | 0.113 | 0.0362 | 0.0257
3 | A-427 | 0.17 | 0.199 | 0.215 |  | 0.212 | 1.02 | 0.856 | 0.859 | 0.898 | 0.911 | 0.863 | 0.871 | 0.76 | 0.25 | 0.464 | 0.381 | 0.116 | 0.133
4 | ABC-1 |  | 0.196 | 0.16 | 0.177 | 0.186 | 0.816 |  |  | 0.354 | 1.13 |  | 1.08 | 1.07 | 0.235 | 0.25 | 0.236 | 0.229 | 0.185
5 | BEN | 0.452 | 0.55 | 0.53 | 0.414 | 0.446 |  | 0.308 | 0.283 | 0.31 | 0.625 | 0.606 | 0.582 | 0.566 | 0.319 | 0.318 | 0.346 | 0.251 | 0.182
6 | CAL-12T | 0.331 | 0.254 | 0.384 |  | 0.3 | 0.604 | 0.376 | 0.365 | 0.355 | 1.15 | 0.663 | 0.917 | 0.687 | 0.61 | 0.668 | 0.591 | 0.101 | 0.114
7 | COR-L23 | 0.21 | 0.191 | 0.22 | 0.195 | 0.194 | 0.722 | 0.539 | 0.448 | 0.186 | 0.508 | 0.43 | 0.228 | 0.239 | 0.442 | 0.435 | 0.404 | 0.0562 | 0.0638
8 | COR-L 105 | 0.331 | 0.361 | 0.367 | 0.326 | 0.344 | 0.736 | 0.782 | 0.595 | 0.565 | 0.782 | 0.717 | 0.781 | 0.79 | 0.572 | 0.391 | 0.526 | 0.261 | 0.203
9 | ChaGo-K-1 | 0.24 | 0.222 | 0.222 | 0.209 | 0.246 | 0.596 | 0.515 | 0.411 | 0.29 | 0.815 | 0.665 | 0.63 | 0.416 | 0.438 | 0.524 | 0.501 | 0.442 | 0.14
10 | EKVX | 0.392 | 0.398 | 0.426 | 0.349 | 0.405 | 1.03 | 0.831 | 0.791 | 0.784 | 0.667 | 0.679 | 0.776 | 0.646 | 0.204 | 0.24 | 0.257 | 0.114 | 0.221
11 | EMC-BAC-2 | 0.326 | 0.281 | 0.304 | 0.285 | 0.275 | 1.12 | 1.02 | 0.955 | 0.646 | 0.584 | 0.405 | 0.703 | 0.446 | 0.52 | 0.62 | 0.572 | 0.376 | 0.199
12 | EPLC-272H | 0.204 | 0.26 | 0.385 | 0.232 | 0.306 | 0.291 | 0.321 | 0.254 | 0.279 | 0.513 | 0.386 | 0.472 | 0.4 | 0.269 | 0.314 | 0.307 | 0.124 | 0.038
13 | H3255 | 0.71 | 0.637 | 0.791 | 0.599 | 0.655 | 0.885 | 0.832 | 0.907 | 0.819 | 0.859 | 0.722 | 0.904 | 0.757 | 0.395 | 0.364 | 0.441 | 0.354 | 0.321
14 | HCC-78 |  | 0.47 | 0.419 | 0.391 | 0.442 |  |  |  |  | 0.443 | 0.429 | 0.377 | 0.557 | 0.539 | 0.683 | 0.78 | 0.668 | 0.235
15 | HCC-366 | 0.143 | 0.0981 | 0.106 |  | 0.136 |  |  |  |  | 0.352 | 0.273 | 0.191 | 0.101 | 0.622 | 0.678 | 0.596 | 0.565 | 0.17
16 | IA-LM |  |  |  |  |  |  |  |  |  | 1.15 | 0.921 | 0.9 | 0.817 |  |  |  |  | 
17 | NCI-H1563 |  |  |  |  |  | 1.21 | 0.475 | 0.538 | 0.481 |  |  |  |  | 0.673 | 0.681 | 0.61 | 0.661 | 0.48
18 | NCI-H1623 | 0.355 | 0.399 | 0.415 | 0.395 | 0.43 | 0.492 | 0.484 | 0.384 | 0.331 |  |  |  |  | 0.5 | 0.612 | 0.725 | 0.19 | 0.414
19 | NCI-H1648 | 0.548 | 0.599 |  | 0.497 | 0.47 |  |  |  |  | 0.392 | 0.477 |  | 0.37 |  |  |  |  | 
20 | NCI-H1792 |  |  |  |  |  | 0.484 | 0.359 | 0.409 | 0.425 |  |  |  |  | 0.188 | 0.357 | 0.262 | 0.234 | 0.0821
